Results taken from paper PMC9738107, “Targeting of the ELR+CXCL/CXCR1/2 Pathway Is a Relevant Strategy for the Treatment of Paediatric Medulloblastomas” (Cells, 2022).

Experiments:
Format in all cases: cell-based, human
[1] = tested on: ONS-76 cells; assay: XTT assay (cell metabolism/cytotoxicity); details: for IC50: Homo sapiens
From the text: (§1) To evaluate the efficacy of this compound in MB cells, we first determined the relative IC50 values for each cell line using XTT assays (Figure 3A–E). The XTT assay is used to measure cellular metabolic activity (overall activity of mitochondrial dehydrogenases) as an indicator of cell viability, proliferation, and cytotoxicity. […] Overall, IC50 values for all cell lines were in the micromolar range, making C29 a very efficient agent to inhibit cell metabolism and viability.
(§2) Figure 3 A new pharmacological inhibitor of CXCR1/2, C29, inhibits the metabolism of MB cells. (A–D). Cytotoxic effect induced by C29 on Daoy (A), ONS-76 (B), HD-MB03 (C), and D341Med (D) cells. Cells were treated with increasing doses of the inhibitor for 24, 48, and 72 h. Cytotoxicity was measured using the XTT assay. Absorbance measurements were performed at […], n = 3. (E) Table with the different IC50 values for all conditions. (F) Cell death after 48 h of treatment with control (DMSO, CT) or C29 1, 2.5 or 5 µM treatment, on MB cells, and normal cells (N), n = 3. Statistics were performed using the one-way method ANOVA. ** p < 0.01, *** p < 0.001. For this figure, Daoy = Da, ONS-76 = O, HD-MB03 = HD, D341 = D3, C8D1A = C8. TEXT PRINTED IN THE PICTURE: (E) C29: IC50 (μM): 5.6 (Cell line: Daoy; 24h); IC50 (μM): 3 (Cell line: Daoy; 48h); IC50 (μM): 0.9 (Cell line: Daoy; 72h); IC50 (μM): 17.9 (Cell line: ONS-76; 24h); IC50 (μM): 6.8 (Cell line: ONS-76; 48h); IC50 (μM): 2.1 (Cell line: ONS-76; 72h); IC50 (μM): 2.6 (Cell line: HD-MB03; 24h); IC50 (μM): 1.8 (Cell line: HD-MB03; 48h); IC50 (μM): 1.3 (Cell line: HD-MB03; 72h); IC50 (μM): 7.5 (Cell line: D341Med; 24h); IC50 (μM): 4.9 (Cell line: D341Med; 48h); IC50 (μM): 4.6 (Cell line: D341Med; 72h)
(§3) centrations of C29 in 96‐well plates for 48h. 50μl/well of XTT solution (Cell Proliferation
(§4) kit II, Sigma‐Aldrich) were added to measure cell metabolism at 490 nm with GloMax‐ […]
(§5) 30 μg of proteins were separated on 10% SDS‐polyacrylamide
(§6) gels and transferred on PVDF membranes in Tris‐Glycine buffer (25 mM Tris, 192 mM
(§7) glycine, pH 8∙3) + 20% ethanol (v:v). Membranes were blocked with 3% BSA, at room tem‐
(§8) perature for 1 h, then immunoblotted overnight with primary antibodies diluted in 3%
(§9) BSA, at 4 °C. The following primary antibodies were used: AKT (CST, #9272S), phospho‐
(§10) ARD1 (homemade polyclonal rabbit antibody). Membranes were incubated with HRP‐
(§11) conjugated secondary antibodies anti‐rabbit IgG 1/5000e (Promega), at room temperature,
(§12) for 1h30. After washing, the Advansta WesternBright Quantum HRP substrate (Diagom‐
(§13) ics, Blagnac, France) was used as detection reagent.

[2] = tested on: HD-MB03 cells; assay: XTT assay (cell metabolism/cytotoxicity); details: for IC50: Homo sapiens
From the text: as §1, §2, §3, §4, §5, §6, §7, §8, §9, §10, §11, §12, §13

[3] = tested on: Daoy cells; assay: XTT assay (cell metabolism/cytotoxicity); details: for IC50: Homo sapiens, Daoy
From the text: as §1, §2, §3, §4, §5, §6, §7, §8, §9, §10, §11, §12, §13

[4] = tested on: D341Med cells; assay: XTT assay (cell metabolism/cytotoxicity); details: for IC50: Homo sapiens, D341 Med
From the text: as §1, §2, §3, §4, §5, §6, §7, §8, §9, §10, §11, §12, §13

[5] = tested on: radiation resistant Daoy cells (DR1, DR2); assay: Clonogenic assay
Experimental: (§14) Figure 8 C29 is efficient on radioresistant MB cell lines. (A) Cell death after 48 h of treatment with control (DMSO, CT) or C29 1, 2.5, or 5 µM on radiation-resistant cells (RR) and normal cells (N), n = 3. Statistics were performed using the one-way method ANOVA. * p < 0.05, ** p < 0.01, *** p < 0.001. For this figure, DR1 = D1, DR2 = D2, HR1 = H1, HR2 = H2, and C8D1A = C8. (B) Proliferation of DR1/DR2 (A) and HR1/HR2 (B) radio-resistant cells after 1 µM C29 treatment or control (DMSO), n = 3. (C) Clonogenic assay on DR1, DR2 (n = 3) and HR1, HR2 (n = 3) cells after treatment with control (DMSO) or C29 (1 µM or 2.5 µM). (D) Cell migration through the Boyden chamber of DR1 and DR2 cells specifically attracted by 200 ng/mL CXCL8. Cells were treated with control (DMSO) or C29 (1 and 2.5 µM). Results are expressed as percentage of control (n = 3). Scale = 1000 μm. Statistics were performed using Student t-test for 2 comparisons only or ANOVA test for multiple comparisons. * p < 0.05, ** p < 0.01, *** p < 0.001. […]
(§15) each month by using PlasmoTest Kit (#10L07‐MM, InvivoGen, Toulouse, France). Daoy and ONS‐76 belong to the Shh genetic subgroup, D341‐Med and HD‐MB03 to group 3. […]
(§16) 150 Daoy/DR1/DR2/ ONS ‐ 76 and 300 HD ‐ MB03/HR1/HR2 cells were seeded in trip‐ licate in 6‐well plates in the presence or absence of treatment (1 or 2∙5μM […] or DMSO as control). On day 9 (Daoy/ONS‐76) and day 11 (HD ‐MB03), cells were fixed in ice‐cold absolute ethanol (Sigma) for 20 min, washed with PBS and then stained with Giemsa 50% for 30 min. The number of clones was quantified using ImageJ software. We only considered clones containing more than 50 cells. […]
Violet. […]
(§17) 5000 cells were plated in 48 multi‐well plates coated with agarose 0∙8%. After two days, spheroids were mixed with 100μl of matrigel mix (200μl of matrigel (Corning Mat‐ rigel Matrix, Fontenay‐sous‐Bois, France), 100 μl collagen I (8 mg/ml, Corning), 80 μl HEPES 1M and 320μl respective medium) in 12 multi‐well plates. […]

[6] = tested on: HR2 cells; assay: Clonogenic assay; details: HR2, 2.5 µM
Experimental: as §14, §15, §16
Violet. […]
as §17

SMILES: O=C(Nc1cccc(Cl)c1)Nc1nc2ccc([N+](=O)[O-])cc2s1 [C29, 1-(3-chlorophenyl)-3-(6-nitrobenzo[d]thiazol-2-yl) urea]
- IC50 ([1]; ONS-76, 24 h): 17.9 µM
- IC50 ([1]; ONS-76, 48 h): 6.8 µM
- IC50 ([1]; ONS-76, 72 h): 2.1 µM
- Selectivity index (SI) ([1]; IC50 normal cells (C8D1A) / IC50 ONS-76): 2.84
- IC50 ([2]; HD-MB03, 24 h): 2.6 µM
- IC50 ([2]; HD-MB03, 48 h): 1.8 µM
- IC50 ([2]; HD-MB03, 72 h): 1.3 µM
- Selectivity index (SI) ([2]; IC50 normal cells (C8D1A) / IC50 HD-MB03): 10.7
- IC50 ([3]; 24 h): 5.6 µM
- IC50 ([3]; 48 h): 3 µM
- IC50 ([3]; 72 h): 0.9 µM
- Selectivity index (SI) ([3]; IC50 normal cells (C8D1A) / IC50 Daoy): 6.44
- Effect on cell metabolism at low concentrations ([4]; D341Med, 72 h, 0.1 to 2.5 µM): stimulated metabolism
- IC50 ([4]; D341Med, 24 h): 7.5 µM
- IC50 ([4]; D341Med, 48 h): 4.9 µM
- IC50 ([4]; D341Med, 72 h): 4.6 µM
- Selectivity index (SI) ([4]; IC50 normal cells (C8D1A) / IC50 D341Med): 3.94
- Clone formation ([5]; DR1, DR2, 1 µM): effective
- Clone formation ([5]; DR1, DR2, 2.5 µM): completely prevented clone formation
- Clone formation [6]: significantly reduced clone formation
